22 compounds from ChEMBL document CHEMBL2057194, “Structure-activity relationships, ligand efficiency, and lipophilic efficiency profiles of benzophenone-type inhibitors of the multidrug transporter P-glycoprotein” (J Med Chem, 2012) can be followed below.

Chain of ATP-dependent translocase ABCB1 (P08183 whole entry): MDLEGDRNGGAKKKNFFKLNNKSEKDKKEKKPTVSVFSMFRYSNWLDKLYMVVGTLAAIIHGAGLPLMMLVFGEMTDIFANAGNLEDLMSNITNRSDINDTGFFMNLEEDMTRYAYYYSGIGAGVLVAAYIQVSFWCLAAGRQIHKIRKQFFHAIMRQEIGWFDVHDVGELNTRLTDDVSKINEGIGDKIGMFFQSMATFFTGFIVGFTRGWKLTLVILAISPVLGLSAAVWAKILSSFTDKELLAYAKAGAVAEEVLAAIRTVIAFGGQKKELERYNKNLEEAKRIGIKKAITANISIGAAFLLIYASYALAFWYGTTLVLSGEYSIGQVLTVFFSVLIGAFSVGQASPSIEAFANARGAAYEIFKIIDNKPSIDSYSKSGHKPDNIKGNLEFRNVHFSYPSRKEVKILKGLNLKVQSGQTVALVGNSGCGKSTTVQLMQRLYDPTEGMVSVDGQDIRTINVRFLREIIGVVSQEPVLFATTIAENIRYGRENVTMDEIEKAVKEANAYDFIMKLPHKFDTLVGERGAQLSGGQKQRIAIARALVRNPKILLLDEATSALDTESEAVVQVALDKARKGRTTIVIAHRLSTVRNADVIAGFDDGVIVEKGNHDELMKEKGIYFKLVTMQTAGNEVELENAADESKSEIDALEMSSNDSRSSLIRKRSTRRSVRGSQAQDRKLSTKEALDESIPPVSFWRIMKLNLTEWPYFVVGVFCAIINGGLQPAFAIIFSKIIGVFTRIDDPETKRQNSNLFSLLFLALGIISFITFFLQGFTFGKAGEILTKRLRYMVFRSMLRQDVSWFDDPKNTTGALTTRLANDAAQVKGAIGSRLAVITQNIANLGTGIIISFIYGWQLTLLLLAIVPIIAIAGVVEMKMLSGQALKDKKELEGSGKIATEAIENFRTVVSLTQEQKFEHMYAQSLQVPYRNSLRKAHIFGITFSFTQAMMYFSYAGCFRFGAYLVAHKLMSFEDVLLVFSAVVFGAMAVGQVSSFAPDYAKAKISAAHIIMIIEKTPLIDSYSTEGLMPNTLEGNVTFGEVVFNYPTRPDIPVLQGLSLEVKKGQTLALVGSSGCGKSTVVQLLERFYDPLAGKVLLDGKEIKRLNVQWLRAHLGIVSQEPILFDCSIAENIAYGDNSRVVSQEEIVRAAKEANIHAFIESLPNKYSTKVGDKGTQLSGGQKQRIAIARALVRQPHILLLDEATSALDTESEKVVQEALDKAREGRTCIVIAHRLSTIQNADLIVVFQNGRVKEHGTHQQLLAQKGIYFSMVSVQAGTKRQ

The first experiment has as its target ATP-dependent translocase ABCB1 (Homo sapiens, UniProt P08183). Briefly: Inhibition of P-glycoprotein-mediated daunorubicin efflux from human CCRF-CEM/VCR1000 cells after 240 secs by FACS flow cytometric analysis. The conditions noted are these: read-out: IC50. A general note: Flow cytometry measures light scatter and fluorescence of single cells or particles in a stream.
For `O=C(c1ccccc1)c1ccccc1OCC(O)CN1CCC(O)(c2ccccc2)CC1` (configuration not stated), the IC50 was 0.31 µM.

Regarding `O=C(c1ccccc1)c1ccccc1OCC(O)CN1CCN(c2ccc(F)cc2)CC1` (configuration not stated), the IC50 was 0.15 µM.

Consider `O=C(c1ccccc1)c1ccc(OCC(O)CN2CCOCC2)cc1` (configuration not stated), for which the IC50 was found to be 5.32 µM.

Turning to `O=C(c1ccccc1)c1ccc(OCC(O)CN2CCCCC2)cc1` (configuration not stated), the IC50 came out at 2.18 µM.

As to `O=C(c1ccccc1)c1ccccc1OCC(O)CN1CCOCC1` (configuration not stated), the IC50 came out at 13.4 µM.

In the case of `Cc1cccc(N2CCN(CC(O)COc3cccc(C(=O)c4ccccc4)c3)CC2)c1C` (configuration not stated), the IC50 was 0.17 µM.

Take `Cc1cccc(N2CCN(CC(O)COc3ccc(C(=O)c4ccccc4)cc3)CC2)c1C` (configuration not stated): the IC50 was found to be 0.65 µM.

In the case of `O=C(c1ccccc1)c1cccc(OCC(O)CN2CCN(c3ccc(F)cc3)CC2)c1` (configuration not stated), the IC50 worked out at 0.58 µM.

For the compound `O=C(c1ccccc1)c1ccc(OCC(O)CN2CCN(c3ccc(F)cc3)CC2)cc1` (configuration not stated), the IC50 was determined as 0.97 µM.

As for `O=C(c1ccccc1)c1ccccc1OCC(O)CN1CCCCC1` (configuration not stated), the IC50 was 1.2 µM.

Turning to `O=C(c1ccccc1)c1cccc(OCC(O)CN2CCCCC2)c1` (configuration not stated), the IC50 came out at 3.55 µM.

Consider `Cc1ccccc1N1CCN(CC(O)COc2cccc(C(=O)c3ccccc3)c2)CC1` (configuration not stated), for which the IC50 is 0.2 µM.

With `Cc1ccccc1N1CCN(CC(O)COc2ccc(C(=O)c3ccccc3)cc2)CC1` (configuration not stated), the IC50 was 0.5 µM.

On to `CCCNCC(O)COc1ccccc1C(=O)c1ccc(C)cc1` (configuration not stated), for which the IC50 came to 1.21 µM.

Regarding `Cc1ccc(NC(=O)N2CCN(CC(O)COc3ccccc3C(=O)c3ccccc3)CC2)cc1` (configuration not stated), the IC50 came out at 0.48 µM.

Take `Cc1ccc(NC(=S)N2CCN(CC(O)COc3ccccc3C(=O)c3ccccc3)CC2)cc1` (configuration not stated): the IC50 is 0.38 µM.

`O=C(c1ccccc1)c1ccccc1OCC(O)CN1CCN(CC(O)COc2ccccc2C(=O)c2ccccc2)CC1` (configuration not stated): the IC50 was 0.05 µM.

Take `CC(=O)c1cc(C)ccc1OCC(O)CN1CCN(CC(O)COc2ccccc2C(=O)c2ccccc2)CC1` (configuration not stated): the IC50 turned out to be 9.48 µM.

Still in this experiment, the particulars now being: read-out: pIC50 (converted).
For `CCOC/C=C/c1ccc(-c2nc(-c3ccc(NC(C)C)cc3)c(-c3ccc(NC(C)C)cc3)[nH]2)cc1`, the IC50 is 0.0316 µM.

On to `O=C(CCc1ccccc1)c1ccccc1OCC(O)CN1CCCCC1` (configuration not stated), for which the IC50 is 0.603 µM.

Consider `O=C(CCc1ccccc1)c1ccccc1OCC(O)CN1CCC(O)(c2ccccc2)CC1` (configuration not stated), for which the IC50 is 0.0575 µM.

As for `COc1cc2c(cc1OC)CN(CCc1ccc(NC(=O)c3cc(OC)c(OC)cc3NC(=O)c3cnc4ccccc4c3)cc1)CC2`, the IC50 was 0.0331 µM.
